Source: patent publication US20250040543A1, “Preservative Composition” (ARXADA AG, priority 2021, published 2025)

Assays:
Assay in all cases: MIC and Synergy Index (Kull) of two-component compositions
Format in all cases: cell-based
Escherichia coli = system: Escherichia coli
Procedure: (§1) A wide range of concentrations were tested against Pseudomonas aeruginosa, Staphylococcus aureus, Escherichia coli, and Candda albicans.
(§2) The lowest concentration of each mixture or single compound which prevents an observable level of growth was determined to be the minimum inhibitory concentration (MIC) value.
(§3) Serial dilutions of each mixture or single compound were prepared. Micro-organisms were inoculated into media: Nutrient Broth (bacteria) or Malt Extract Broth (yeast). The final concentrations of micro-organisms in media was approximately 10^5-6 CFU/ml. The inoculated media was introduced to each of the serial dilutions at a 1:1 ratio, and incubated at 30±1° C. for 24-48 hours.
(§4) The MICs for each mixture was compared with the MIC of each single compound alone.
(§5) Synergy was determined using the Kull equation (F. C. Kull et. al., “Mixtures of Quaternary Ammonium Compounds and Long-chain Fatty Acids as Antifungal Agents”, Appl Microbiol. 1961 November; 9(6): 538-541), which calculates a Synergy Index (SI) according the following equation:
(§6) [formula] • wherein • QA=concentration of compound A in ppm, acting alone produced an end point, • Qa=concentration of compound A in ppm, in the mixture, which produced an end point, • QB=concentration of compound B in ppm, acting alone produced an end point, and • Qb=concentration of compound B in ppm, in the mixture, which produced an end point;
(§7) In this study the end point is measured by the MIC.

Staphylococcus aureus = details: Staphylococcus aureus, butyl levulinate alone, or its concentration in the mixture with Sodium benzoate; read-out: MIC (ppm) to inhibit growth: Butyl levulinate
Procedure: as §1, §2, §3, §4, §5, §6, §7

Pseudomonas aeruginosa = system: Pseudomonas aeruginosa
Procedure: as §1, §2, §3, §4, §5, §6, §7

MIC (Escherichia coli; Escherichia coli, butyl levulinate alone, or its concentration in the mixture with Sodium benzoate, read-out: MIC (ppm) to inhibit growth: Butyl levulinate): 3120 µg/mL
MIC (ppm) to inhibit growth: Butyl levulinate (Escherichia coli; butyl levulinate alone, or its concentration in the mixture with DHA): 3125 ppm
MIC (Staphylococcus aureus): 25 mg/mL
MIC (Pseudomonas aeruginosa; Pseudomonas aeruginosa, butyl levulinate alone, or its concentration in the mixture with Lactic Acid, read-out: MIC (ppm) to inhibit growth: Butyl levulinate): 6250 µg/mL
MIC (ppm) to inhibit growth: Butyl levulinate (Pseudomonas aeruginosa; butyl levulinate alone, or its concentration in the mixture with MGDA): 6250 ppm
MIC (ppm) to inhibit growth: Butyl levulinate (Pseudomonas aeruginosa; butyl levulinate alone, or its concentration in the mixture with Sodium pyrithione): 6250 ppm
Compound: CCCCOC(=O)CCC(C)=O [Butyl Levulinate, butyl levulinate]
